Source: ChEMBL document CHEMBL3860073, “Thermodynamic properties of leukotriene A4 hydrolase inhibitors” (Bioorg Med Chem, 2016)

Legend:
[1] = biological target: T1, Leukotriene A-4 hydrolase (Homo sapiens, UniProt P09960); test: Competitive inhibition of human C-terminal his6-tagged/N-terminal T7 gene leader sequence-tagged LTA4H using varying levels of L-arginine-7-amino-4-Methylcoumarine as substrate preincubated for 30 mins followed by substrate addition measured for 30 mins by fluorescence assay
T1 sequence (P09960 whole entry): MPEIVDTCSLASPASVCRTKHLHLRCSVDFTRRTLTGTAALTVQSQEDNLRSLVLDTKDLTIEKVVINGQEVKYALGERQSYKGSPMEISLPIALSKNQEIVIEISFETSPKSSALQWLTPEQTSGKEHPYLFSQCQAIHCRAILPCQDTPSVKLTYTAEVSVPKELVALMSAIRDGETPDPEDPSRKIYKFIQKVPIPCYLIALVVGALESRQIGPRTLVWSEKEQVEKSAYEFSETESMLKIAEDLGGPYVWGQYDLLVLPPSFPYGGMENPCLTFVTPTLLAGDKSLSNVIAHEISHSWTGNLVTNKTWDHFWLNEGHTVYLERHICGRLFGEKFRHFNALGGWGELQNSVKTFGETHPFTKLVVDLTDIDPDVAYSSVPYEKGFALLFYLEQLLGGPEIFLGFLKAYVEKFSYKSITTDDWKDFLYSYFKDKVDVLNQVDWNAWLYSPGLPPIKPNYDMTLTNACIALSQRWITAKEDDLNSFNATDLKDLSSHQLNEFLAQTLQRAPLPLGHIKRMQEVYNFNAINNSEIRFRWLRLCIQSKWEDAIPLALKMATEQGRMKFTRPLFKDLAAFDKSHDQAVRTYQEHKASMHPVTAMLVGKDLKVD

[2] = biological target: T1, Leukotriene A-4 hydrolase; test: Inhibition of human C-terminal his6-tagged/N-terminal T7 gene leader sequence-tagged LTA4H using L-arginine-7-amino-4-Methylcoumarine as substrate preincubated for 30 mins followed by substrate addition measured for 30 mins by fluorescence assay
[3] = biological target: T1, Leukotriene A-4 hydrolase; test: Binding affinity to human C-terminal his6-tagged/N-terminal T7 gene leader sequence-tagged LTA4H at 15 degC by ITC method
[4] = biological target: T1, Leukotriene A-4 hydrolase; test: Binding affinity to human C-terminal his6-tagged/N-terminal T7 gene leader sequence-tagged LTA4H at 25 degC by ITC method
[5] = biological target: T2, Leukotriene A-4 hydrolase (Homo sapiens) (UniProt P09960)
T2 sequence (whole entry): T1 sequence (P09960 whole entry)
Description: Binding affinity to human C-terminal His6-tagged/N-terminal T7 gene leader sequence-tagged LTA4H assessed as change in melting temperature at 1 mM by circular dichroism spectroscopic analysis

[6] = biological target: T2, Leukotriene A-4 hydrolase (Homo sapiens); remark: listed apart in the source
[7] = biological target: T1, Leukotriene A-4 hydrolase; test: Binding affinity to human C-terminal his6-tagged/N-terminal T7 gene leader sequence-tagged LTA4H at 35 degC by ITC method
[8] = biological target: T2, Leukotriene A-4 hydrolase (Homo sapiens); conditions: 40 uM
[9] = biological target: T2, Leukotriene A-4 hydrolase (Homo sapiens); test: Binding affinity to human C-terminal His6-tagged/N-terminal T7 gene leader sequence-tagged LTA4H assessed as change in melting temperature at 0.5 mM by circular dichroism spectroscopic analysis

Compound	Ki [1]	IC50 [2]	Kd [3]	Kd [4]	ΔTm [5]	ΔTm [6]	Kd [7]	ΔTm [8]	ΔTm [9]
C[C@H](CS)C(=O)N1CCC[C@H]1C(=O)O [CAPTOPRIL]	3700 nM	3600 nM	6370 nM	6250 nM	0.7 °C	1.5 °C	8470 nM	–	–
Nc1nc(-c2ccc(Cc3ccccc3)cc2)cs1	360 nM	400 nM	130 nM	310 nM	–	5.3 °C	220 nM	5.3 °C	–
CC(C)C[C@H](NC(=O)[C@@H](O)[C@H](N)Cc1ccccc1)C(=O)O	–	–	–	–	5.2 °C	5.1 °C	–	–	–
CN(CCCOc1ccc(Cc2ccccc2)cc1)CCC(=O)O	–	–	–	–	–	5.4 °C	–	–	8.9 °C
CN(C)CCOc1ccc(Oc2ccccc2)cc1	160 nM	60 nM	60 nM	270 nM	–	5 °C	270 nM	–	7.8 °C
